Reference: patent publication US20230399358A1, “IMMUNOGLOBULIN PURIFICATION PEPTIDES AND THEIR USE” (North Carolina State University, priority 2019, published 2023)

Assays:
human IgG = assay: Dynamic binding capacity by breakthrough assay; conditions: 20 mg/mL IgG in PBS
Experimental: Measurements of dynamic binding capacity (DBC) were performed on a Waters 2695 unit. MWRGWQ (SEQ ID NO:2)—Workbeads and WQRHGIC (SEQ ID NO:30)—Workbeads resins were wet packed in a 0.1 mL microbore column and equilibrated in PBS pH 7.4. A solution of human IgG at 20 mg/mL in PBS was owed through the column at 0.05 mL/min and 0.02 mL/min, corresponding to residence times (RT) of 2 and 5 min, respectively. The bound IgG was eluted with glycine pH 2.5. The absorbance of the effluent was monitored by UV/Vis spectrophotometry at 280 nm throughout the breakthrough study. The DBC was calculated at 10% of the breakthrough curve.
Breakthrough curves (FIG. 5 panels A-D) were obtained by flowing a 20 mg/mL solution of IgG in PBS through the […] and MWRGWQC (SEQ ID NO:31)-WB adsorbents at two different flow rates (0.05 and 0.02 mL/min) corresponding to two different residence times (2 and 5 minutes).

[1] = system: human polyclonal IgG in CHO-S cell culture fluid; assay: Static purification of IgG from CHO cell culture supernatant on peptide-Toyopearl resins, SDS-PAGE densitometry; conditions: Gel B
Experimental: Measurement of IgG binding by peptide-based chromatographic adsorbents: For initial studies, 35 mg of MWRGWQ (SEQ ID NO:2)-Toyopearl, RHLGWF (SEQ ID NO:3)-Toyopearl, WQRHGI (SEQ ID NO:1)-Toyopearl, GWLHQR (SEQ ID NO:4)-Toyopearl, and HWRGWV (SEQ ID NO:18)-Toyopearl (control) resins were equilibrated in PBS pH 7.4, reaching a swollen volume of 0.1 mL, and subsequently incubated with 1 mg/mL IgG in 0.205 mg/mL CHO cell culture supernatant for 30 minutes. The resins were subsequently washed several times with PBS to remove non-specifically bound proteins. Elution was performed with 100 mM glycine buffer pH 2.5. Flowthrough and elution fractions were collected and analyzed by SDS PAGE under reducing conditions. The resulting gels were stained with Coomassie staining. Further, 25 mg of the adsorbents MWRGWQ (SEQ ID NO:2)-Toyopearl, NIFRGWQ (SEQ ID NO:21)-Toyopearl, MWRAWQ (SEQ ID NO:5)-Toyopearl, MWRGFQ (SEQ ID NO:7)-Toyopearl, MWRGWN (SEQ ID NO:22)-Toyopearl, (NorL) WRGWQ (SEQ ID NO:23)-Toyopearl, MGRGWQ (SEQ ID NO:24)-Toyopearl, MWRWQ (SEQ ID NO:6)-Toyopearl, MWRGGQ (SEQ ID NO:26)-Toyopearl, GWRGWQ (SEQ ID NO:8)-Toyopearl, WQRHGI (SEQ ID NO:1)-Toyopearl, WNRHGI (SEQ ID NO:12)-Toyopearl, WQRAGI (SEQ ID NO:28)-Toyopearl, WQRHAI (SEQ ID NO:11)-Toyopearl, WQRHGL (SEQ ID NO:9)-Toyopearl, FQRHGI (SEQ ID NO:29)-Toyopearl, and WQRHGV (SEQ ID NO:10)-Toyopearl resins were equilibrated in PBS pH 7.4, reaching a swollen volume of 0.1 mL, and subsequently incubated with 1 mg/mL IgG in PBS at pH 7.4 for 30 minutes. The amount of unbound IgG in the supernatant samples was quantified by Bradford assay and utilized to determine the IgG binding % by the peptide variants.
Characterization of IgG-binding peptide variants WQRHGI (SEQ ID NO:1), MWRGWQ (SEQ ID NO:2), RHLGWF (SEQ ID NO:3), and GWLHQR (SEQ ID NO:4) in competitive conditions: The four selected sequence variants were tested for their ability to purify human IgG from a CHO cell culture supernatant and found largely to mirror their in silico predictions. Even though they seemed to underperform in silico, RHLGWF (SEQ ID NO:3) and GWLHQR (SEQ ID NO:4) were tested alongside WQRHGI (SEQ ID NO:1) and MWRGWQ (SEQ ID NO:2) in these conditions in order to confirm their ability to bind IgG and examine their selectivity as predicted in silico. The feedstock was prepared by spiking human polyclonal IgG into a clarified null CHO-S cell culture fluid to obtain an IgG concentration of 1 mg/mL and a CHO HCP concentration of 0.205 mg/mL. An aliquot of 500 μL was loaded onto each peptide adsorbent in static conditions for 30 min. Following a washing step with PBS to remove loosely bound proteins, a first elution step was conducted using 0.1 M glycine buffer pH 2.5 to remove all bound proteins. Flow through fractions and pH 2.5 elution fractions were loaded neat and analyzed by SDS PAGE (FIGS. 6A-6B). The values of IgG purity in the eluted fractions were determined by densitometric analysis of the corresponding lanes on the gels, and are reported in Table 9.

## WQRHGI
Human IgG; residence time 2 min
  DBC at 10% breakthrough: 33.6 mg IgG/mL resin
Human IgG; residence time 5 min
  DBC at 10% breakthrough: 43.8 mg IgG/mL resin
[1]; lane FT (flow-through)
  % Purity (IgG over total proteins): 52.71%
[1]; lane R (pH 2.5)
  % Purity (IgG over total eluted proteins): 78.79%
